Reference: publication PMC9706575 (Journal of Medicinal Chemistry, 2022)

Assays:
[1] = mouse, in vivo, iv
[2] = molecular target: targefrin; assay: ITC; reverse titration: 200 μM protein in the syringe, 20 injections of 2.5 μL into 10 μM compound in the cell; 25 mM Tris pH 7.5, 150 mM NaCl, 1% DMSO, 25 °C

Chain of ephrin type-A receptor 2 ligand-binding domain (P29317 27-200): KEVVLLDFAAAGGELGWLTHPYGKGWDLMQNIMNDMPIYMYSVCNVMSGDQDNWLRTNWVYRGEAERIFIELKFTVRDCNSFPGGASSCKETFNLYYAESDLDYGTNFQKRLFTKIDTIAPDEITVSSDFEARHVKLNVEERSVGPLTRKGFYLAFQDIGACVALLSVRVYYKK

| Compound | Body weight (g), Friday [1] | Body weight (g), Thursday [1] | Body weight (g), Wednesday [1] | Kd [2] | dH [2] |
| --- | --- | --- | --- | --- | --- |
| CC(=O)O[C@H]1C(=O)[C@@]2(C)[C@H]([C@H](OC(=O)c3ccccc3)[C@]3(O)C[C@H](OC(=O)[C@H](O)[C@@H](NC(=O)c4ccccc4)c4ccccc4)C(C)=C1C3(C)C)[C@]1(OC(C)=O)CO[C@@H]1C[C@@H]2O [PTX, paclitaxel] | 22.11 g | 21.95 g | 21.85 g |  |  |
| ephrin type-A receptor 2 ligand-binding domain (from UniProt P29317 27-200) (domain or fragment) |  |  |  | 21.7 nM | -20.2 kcal/mol |
